Source: patent US10266495B2, “Phenyl quinolinone derivatives as mutant-isocitrate dehydrogenase inhibitors” (FORMA TM2, Inc., priority 2014, dated 2019)

What was measured:
[1] = system: HCT116 isogenic IDH1-R132C mutant cells; test: Cellular 2-HG assay using HCT116 mutant IDH1 cells (R132C); assay type: cell-based; conditions: Homo sapiens, HCT-116; cellular 2-HG inhibition, 24 hours, RapidFire mass spectrometry; read-out: HCT116 IDH1 R132C IC50 Range
[2] = target: IDH1-R132H recombinant protein (Homo sapiens, UniProt O75874, R132H); test: IDH1-R132H enzymatic assay (NADPH consumption, diaphorase/resazurin readout); assay type: biochemical; conditions: read-out: Enzyme IDH1 R132H IC50 Range
Method: (§1) Assays were performed in a 384-well black plate. An aliquot of 250 nL of compound was incubated with 10 μL of 30 nM IDH1-R132H or 10 nM IDH1-R132C recombinant protein in assay buffer (50 mM Tris pH=7.5, 150 mM NaCl, 5 mM MgCl2, 0.1% (w/v) Bovine Serum Albumin, and 0.01% Triton X-100) in each well at 25° C. for 15 minutes. After the plate was centrifuged briefly, an aliquot of 10 μL of 2 mM α-ketoglutarate and 20 μM NADPH solution prepared in assay buffer was then added to each well and the reaction was maintained at 25° C. for 45 minutes. An aliquot of 10 μL of diaphorase solution (0.15 U/mL diaphorase and 30 μM Resazurin in assay buffer) was added to each well. […] The IC50 of a given compound was calculated by fitting the dose response curve of inhibition of NADPH consumption at a given concentration with the four parameter logistic equation.

[3] = target: IDH1-R132C recombinant protein (Homo sapiens, UniProt O75874, R132C); test: IDH1-R132C enzymatic assay (NADPH consumption, diaphorase/resazurin readout); assay type: biochemical; conditions: read-out: Enzyme IDH1 R132C IC50 Range
Method: as §1

[4] = system: HCT116 isogenic IDH1-R132H mutant cells; test: Cellular 2-HG assay using HCT116 mutant IDH1 cells (R132H); assay type: cell-based; conditions: Homo sapiens, HCT-116; cellular 2-HG inhibition, 24 hours, RapidFire mass spectrometry; read-out: HCT116 IDH1 R132H IC50 Range

Chain of IDH1-R132C recombinant protein (O75874 whole entry R132C): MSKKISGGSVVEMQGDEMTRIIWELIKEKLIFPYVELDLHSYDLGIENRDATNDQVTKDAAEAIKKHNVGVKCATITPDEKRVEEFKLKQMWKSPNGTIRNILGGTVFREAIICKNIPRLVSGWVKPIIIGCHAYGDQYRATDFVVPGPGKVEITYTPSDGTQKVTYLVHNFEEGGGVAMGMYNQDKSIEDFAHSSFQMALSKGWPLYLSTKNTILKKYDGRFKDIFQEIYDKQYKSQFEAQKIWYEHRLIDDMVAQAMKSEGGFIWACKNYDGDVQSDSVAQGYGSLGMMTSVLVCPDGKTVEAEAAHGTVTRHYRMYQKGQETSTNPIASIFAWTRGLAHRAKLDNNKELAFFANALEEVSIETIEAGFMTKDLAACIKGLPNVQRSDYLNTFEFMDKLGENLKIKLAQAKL
Chain of IDH1-R132H recombinant protein (O75874 whole entry R132H): as the sequence (O75874 whole entry R132C) above, with C132H counted along it

Structure (SMILES) | IC50 [1] | IC50 [2] | IC50 [3] | IC50 [4]
COc1cc(N[C@@H](C)c2cc3cc(Cl)ccc3[nH]c2=O)ccc1C#N [Compound I-2, 4-{[(1S)-1-(6-chloro-2-oxo-1,2-dihydroquinolin-3-yl)ethyl]amino}-2-methoxybenzonitrile] | 100 to 1000 nM | 10 to 100 nM | 100 to 1000 nM | < 10 nM
COc1cc(NCc2cc3cc(Cl)c(OCC4CCCCN4C)cc3[nH]c2=O)ccc1C#N (centres unmarked) [Compound I-72, 4-[({6-chloro-7-[(1-methylpiperidin-2-yl)methoxy]-2-oxo-1,2-dihydroquinolin-3-yl}methyl)amino]-2-methoxybenzonitrile] |  | 10 to 100 nM | > 1000 nM | 
COc1cc(NCc2cc3cc(Cl)c(OCc4ccncc4)cc3[nH]c2=O)ccc1C#N [Compound I-74, 4-({[6-chloro-2-oxo-7-(pyridin-4-ylmethoxy)-1,2-dihydroquinolin-3-yl]methyl}amino)-2-methoxybenzonitrile] |  | 100 to 1000 nM | > 1000 nM | 
COc1cc(NCc2cc3cc(Cl)c(OCC4CCS(=O)(=O)CC4)cc3[nH]c2=O)ccc1C#N [Compound I-75, 4-[({6-chloro-7-[(1,1-dioxo-1λ^6-thian-4-yl)methoxy]-2-oxo-1,2-dihydroquinolin-3-yl}methyl)amino]-2-methoxybenzonitrile] |  | 100 to 1000 nM | > 1000 nM | 
COc1cc(NCc2cc3cc(Cl)c(OCc4cnccn4)cc3[nH]c2=O)ccc1C#N [Compound I-76, 4-({[6-chloro-2-oxo-7-(pyrazin-2-ylmethoxy)-1,2-dihydroquinolin-3-yl]methyl}amino)-2-methoxybenzonitrile] |  | 10 to 100 nM | > 1000 nM | 
COc1cc(NCc2cc3cc(Cl)c(OCc4cncn4C)cc3[nH]c2=O)ccc1C#N [Compound I-77, 4-[({6-chloro-7-[(1-methyl-1H-imidazol-5-yl)methoxy]-2-oxo-1,2-dihydroquinolin-3-yl}methyl)amino]-2-methoxybenzonitrile] |  | 10 to 100 nM | 100 to 1000 nM | 
COc1cc(NCc2cc3cc(Cl)c(OCc4nccn4C)cc3[nH]c2=O)ccc1C#N [Compound I-78, 4-[({6-chloro-7-[(1-methyl-1H-imidazol-2-yl)methoxy]-2-oxo-1,2-dihydroquinolin-3-yl}methyl)amino]-2-methoxybenzonitrile] |  | 10 to 100 nM | 100 to 1000 nM | 
COc1cc(NCc2cc3cc(Cl)c(OCc4nc(C(N)=O)no4)cc3[nH]c2=O)ccc1C#N [Compound I-79, 5-{[(6-chloro-3-{[(4-cyano-3-methoxyphenyl)amino]methyl}-2-oxo-1,2-dihydroquinolin-7-yl)oxy]methyl}-1,2,4-oxadiazole-3-carboxamide] |  | 10 to 100 nM | 100 to 1000 nM | 
COc1cc(NCc2cc3cc(Cl)c(OCCc4ccccn4)cc3[nH]c2=O)ccc1C#N [Compound I-80, 4-[({6-chloro-2-oxo-7-[2-(pyridin-2-yl)ethoxy]-1,2-dihydroquinolin-3-yl}methyl)amino]-2-methoxybenzonitrile] |  | 10 to 100 nM | > 1000 nM | 
COc1cc(NCc2cc3cc(Cl)c(OCCc4ccncc4)cc3[nH]c2=O)ccc1C#N [Compound I-81, 4-[({6-chloro-2-oxo-7-[2-(pyridin-4-yl)ethoxy]-1,2-dihydroquinolin-3-yl}methyl)amino]-2-methoxybenzonitrile] |  | 10 to 100 nM | > 1000 nM | 
COc1cc(NCc2cc3cc(Cl)c(OCCCN(C)C)cc3[nH]c2=O)ccc1C#N [Compound I-82, 4-[({6-chloro-7-[3-(dimethylamino)propoxy]-2-oxo-1,2-dihydroquinolin-3-yl}methyl)amino]-2-methoxybenzonitrile] |  | 100 to 1000 nM | > 1000 nM | 
COc1cc(NCc2cc3cc(Cl)c(OCCCN4CCCC4)cc3[nH]c2=O)ccc1C#N [Compound I-83, 4-[({6-chloro-2-oxo-7-[3-(pyrrolidin-1-yl)propoxy]-1,2-dihydroquinolin-3-yl}methyl)amino]-2-methoxybenzonitrile] |  | 10 to 100 nM | > 1000 nM | 
COc1cc(NCc2cc3cc(Cl)c(OCCCN4CCCCC4)cc3[nH]c2=O)ccc1C#N [Compound I-84, 4-[({6-chloro-2-oxo-7-[3-(piperidin-1-yl)propoxy]-1,2-dihydroquinolin-3-yl}methyl)amino]-2-methoxybenzonitrile] |  | 100 to 1000 nM | > 1000 nM | 
COc1cc(NCc2cc3cc(Cl)c(OCCN4CCCC4)cc3[nH]c2=O)ccc1C#N [Compound I-85, 4-[({6-chloro-2-oxo-7-[2-(pyrrolidin-1-yl)ethoxy]-1,2-dihydroquinolin-3-yl}methyl)amino]-2-methoxybenzonitrile] |  | 100 to 1000 nM | > 1000 nM | 
COc1cc(NCc2cc3cc(Cl)c(OCCN4CCCC4=O)cc3[nH]c2=O)ccc1C#N [Compound I-86, 4-[({6-chloro-2-oxo-7-[2-(2-oxopyrrolidin-1-yl)ethoxy]-1,2-dihydroquinolin-3-yl}methyl)amino]-2-methoxybenzonitrile] |  | 10 to 100 nM | > 1000 nM | 
COc1cc(NCc2cc3cc(Cl)c(OCCN4CCCCC4)cc3[nH]c2=O)ccc1C#N [Compound I-87, 4-[({6-chloro-2-oxo-7-[2-(piperidin-1-yl)ethoxy]-1,2-dihydroquinolin-3-yl}methyl)amino]-2-methoxybenzonitrile] |  | 10 to 100 nM | > 1000 nM | 
COc1cc(NCc2cc3cc(Cl)c(OCCN4CCN(C)CC4)cc3[nH]c2=O)ccc1C#N [Compound I-88, 4-[({6-chloro-7-[2-(4-methylpiperazin-1-yl)ethoxy]-2-oxo-1,2-dihydroquinolin-3-yl}methyl)amino]-2-methoxybenzonitrile] |  | 10 to 100 nM | > 1000 nM | 
COc1cc(NCc2cc3cc(Cl)c(OCCn4ccnc4)cc3[nH]c2=O)ccc1C#N [Compound I-89, 4-[({6-chloro-7-[2-(1H-imidazol-1-yl)ethoxy]-2-oxo-1,2-dihydroquinolin-3-yl}methyl)amino]-2-methoxybenzonitrile] |  | 10 to 100 nM | > 1000 nM | 
COc1cc(NCc2cc3cc(Cl)c(OCCn4ccnc4C)cc3[nH]c2=O)ccc1C#N [Compound I-90, 4-[({6-chloro-7-[2-(2-methyl-1H-imidazol-1-yl)ethoxy]-2-oxo-1,2-dihydroquinolin-3-yl}methyl)amino]-2-methoxybenzonitrile] |  | 10 to 100 nM | 100 to 1000 nM | 
COc1cc(NCc2cc3cc(Cl)c(OCCN4CCS(=O)(=O)CC4)cc3[nH]c2=O)ccc1C#N [Compound I-91, 4-[({6-chloro-7-[2-(1,1-dioxo-1λ^6,4-thiomorpholin-4-yl)ethoxy]-2-oxo-1,2-dihydroquinolin-3-yl}methyl)amino]-2-methoxybenzonitrile] |  | 100 to 1000 nM | > 1000 nM | 
COc1cc(NCc2cc3cc(Cl)c(OCCn4nc(C)cc4C)cc3[nH]c2=O)ccc1C#N [Compound I-92, 4-[({6-chloro-7-[2-(3,5-dimethyl-1H-pyrazol-1-yl)ethoxy]-2-oxo-1,2-dihydroquinolin-3-yl}methyl)amino]-2-methoxybenzonitrile] |  | 100 to 1000 nM | > 1000 nM | 
COc1cc(NCc2cc3cc(Cl)c(OC[C@@H]4CCCN4C)cc3[nH]c2=O)ccc1C#N [Compound I-94, 4-{[(6-chloro-7-{[(2S)-1-methylpyrrolidin-2-yl]methoxy}-2-oxo-1,2-dihydroquinolin-3-yl)methyl]amino}-2-methoxybenzonitrile] |  | 10 to 100 nM | > 1000 nM | 
COc1cc(NCc2cc3cc(Cl)cc(C)c3[nH]c2=O)ccc1C#N [Compound I-95, 4-{[(6-chloro-8-methyl-2-oxo-1,2-dihydroquinolin-3-yl)methyl]amino}-2-methoxybenzonitrile] |  | 100 to 1000 nM | > 1000 nM | 
COc1cc(NCc2cc3cc(Cl)cc(OC)c3[nH]c2=O)ccc1C#N [Compound I-97, 4-{[(6-chloro-8-methoxy-2-oxo-1,2-dihydroquinolin-3-yl)methyl]amino}-2-methoxybenzonitrile] |  | 100 to 1000 nM | > 1000 nM | 
COc1cc(NCc2cc3cc(Cl)cc(OCc4ccccn4)c3[nH]c2=O)ccc1C#N [Compound I-98, 4-({[6-chloro-2-oxo-8-(pyridin-2-ylmethoxy)-1,2-dihydroquinolin-3-yl]methyl}amino)-2-methoxybenzonitrile] |  | 10 to 100 nM | > 1000 nM | 
COc1cc(NCc2cc3cc(Cl)cc(OCCN4CCOCC4)c3[nH]c2=O)ccc1C#N [Compound I-99, 4-[({6-chloro-8-[2-(morpholin-4-yl)ethoxy]-2-oxo-1,2-dihydroquinolin-3-yl}methyl)amino]-2-methoxybenzonitrile] |  | 100 to 1000 nM | > 1000 nM | 
COc1cc(NCc2cc3cc(Cl)cc(OCCN4CCCC4)c3[nH]c2=O)ccc1C#N [Compound I-100, 4-[({6-chloro-2-oxo-8-[2-(pyrrolidin-1-yl)ethoxy]-1,2-dihydroquinolin-3-yl}methyl)amino]-2-methoxybenzonitrile] |  | 100 to 1000 nM | > 1000 nM | 
